Test results taken from US20060193925A1, “Side effect-relieving agents and/or hypoglycemic effect enhancers for thiazolidine compounds” (KANEBO, LIMITED, priority 2001, published 2006).
Where a name gives a salt, the structure may show the parent alone.

Assays:
Assay type in all cases: in vivo
[1] = Test Example 3: body weight gain inhibiting effect; settings: KKA^y mice, 7/group, in powder diet, pioglitazone 5 mg/kg/day, extract powder of Preparation Example 2 6.4 g/kg/day
Protocol: (§1) Divided into groups of 7 mice, 7-week old KKA^y mice which were genetically obese diabetic animals were used, and the tests were carried out in the same manner as in Test Example 1, except Group (c) and (d) were given the extract powder of Preparation Example 2, and pioglitazone and the extract powder of Preparation Example 2, respectively, for 4 weeks by preparing the powder diet so that the daily dose each therein was of the values shown in Table 4.
The results were evaluated in the same manner as in Test Example 1.

[2] = tested on: KKA^y mice; assay: Test Example 4: hypoglycemic effect (blood glucose level in serum); settings: in powder diet, pioglitazone 5 mg/kg/day, extract powder of Preparation Example 2 6.4 g/kg/day
Protocol: as §1
The test was carried out in the same manner as in Test Example 3. The blood was collected 1 week and 4 weeks after commencement of the administration, and the serum was separated to measure the blood glucose levels.
The results were evaluated in the same manner as in Test Example 2.

[3] = Test Example 1: body weight gain inhibiting effect; settings: KKA^y mice, 8/group, in powder diet, pioglitazone 5 mg/kg/day, extract powder of Preparation Example 1 1.5 g/kg/day
From the text: (§2) Divided into groups of 8 mice, 7-week old KKA^y mice which were genetically obese diabetic animals were used. Group (a) was fed only on a powder diet (CE-2, produced by Clea Japan, Inc.) for 5 weeks, and Group (b), Group (c) and Group (d) were given pioglitazone, the extract powder of Preparation Example 1, and pioglitazone and the extract powder of Preparation Example 1, respectively, for 5 weeks by preparing a powder diet so that the daily dose of each therein was of the values shown in Table 1. During the period of the test, body weights were measured, and the formulation of the diet were adjusted in accordance with an increase or decrease in body weight to keep the doses per day in Group (b) and Group (d) constant.
The results were evaluated by comparing the body weight gain observed in each of Groups (a), (b), (c) and (d) (Student's t-test).

[4] = tested on: KKA^y mice; assay: Test Example 2: hypoglycemic effect (blood glucose level in serum); settings: in powder diet, pioglitazone 5 mg/kg/day, extract powder of Preparation Example 1 1.5 g/kg/day
From the text: as §2
Tests were carried out in the same manner as in Test Example 1. The blood was collected 1 week and 5 weeks after commencement of the administration, and the serum was separated to measure the blood glucose levels.

With `CCc1ccc(CCOc2ccc(CC3SC(=O)NC3=O)cc2)nc1` (centres unmarked) [Pioglitazone, pioglitazone hydrochloride] the “Body weight gain, 1 week after administration” value ([1]; 1 week) was 5.3 ± 0.4 g, the “Body weight gain, 4 weeks after administration” value ([1]; 4 weeks) was 10.7 ± 0.5 g and the “Blood glucose level, 1 week after the administration” value ([2]; 1 week) was 320 ± 30 mg/dL. The “Blood glucose level, 4 weeks after the administration” value ([2]; 4 weeks) was 587 ± 24 NS mg/dl, the “Body weight gain, 1 week after administration” value ([3]; 1 week) was 5.2 ± 0.2 g and the “Body weight gain, 5 weeks after administration” value ([3]; 5 weeks) was 11.8 ± 0.6 g. For the same molecule, the “Blood glucose level, 1 week after the administration” value ([4]; 1 week) was 404 ± 28 mg/dL and the “Blood glucose level, 5 weeks after the administration” value ([4]; 5 weeks) was 527 ± 18 NS mg/dl.
